The results in this text go back to patent US3988337A, “Substituted triamino-s-triazines” (BASF Wyandotte Corporation, priority 1974, dated 1976).

Test [1] can be described thus: Catalysis of toluene diisocyanate condensation to cellular/resinous carbodiimide products (Table I). The conditions noted are these: 100 parts toluene diisocyanate. The procedure:
Utilizing the triazines of Examples III-VI hereof, a series of cellular and resinous products characterized by carbodiimide linkages, as defined in the above-referred to patents, were prepared by the following procedure:
(§1) One hundred parts of toluene diisocyanate was admixed with a catalyst in accordance herewith. With stirring, the admixture was heated to its reaction initiation temperature at which time the reactants were transferred to a separate container for foaming.

A short description of test [2]: Efficacy of triazine catalysts with 1 part methanol in the catalyst blend (Table II). The conditions noted are these: 1 part of methanol introduced into the catalyst blend. The protocol:
as §1
To test the efficacy of the instant catalysts, samples analogous to samples C, D and Control were prepared, but wherein 1 part of methanol was introduced into the catalyst blend.

On to `CCN(CC)c1nc(N(C)CCO)nc(N(CC)CC)n1` [DMT, 2,4-bis(diethylamino)-6-N-methylethanolamine-s-triazine, reference compound], for which, in test [1] (catalyst 1.0 part), the “Initiation Temperature” value amounted to 124 °C, the “Max. Exotherm” value was 185 °C and the “Nature of Product” value is recorded as “Foam”. Moreover, in test [2], the “Initiation Temp.” value turned out to be 25 °C and the “Nature of Product” value is recorded as “No Foam”.
With `CN(C)CCCN(CCO)c1nc(N(CCO)CCCN(C)C)nc(N(CCO)CCCN(C)C)n1` [Example III, 2,4,6-tris[3-dimethylamino-N-(2-hydroxyethyl)propylamino]-s-triazine], in test [1] (catalyst 2.0 parts), the “Initiation Temperature” value stood at 95 °C, the “Max. Exotherm” value amounted to 180 °C and the “Nature of Product” value is “Foam”.
The matching figures for `CN(C)CCCN(CCCN(C)C)c1nc(N(C)CCO)nc(N(CCCN(C)C)CCCN(C)C)n1` [Example IV, 2,4-bis[bis(3-dimethylaminopropyl)amino]-6-(N-methyl-2-hydroxyethylamino)-s-triazine]: 100 °C, 188 °C and “Foam”.
Turning to `CCCCN(CCCC)c1nc(N(CCO)CCCN(C)C)nc(N(CCCC)CCCC)n1` [Example V, 2,4-bis(dibutylamino)-6-[3-dimethylamino-N-(2-hydroxyethyl)propylamino]-s-triazine], in test [1] (catalyst 1.0 part), the “Initiation Temperature” value was 95 °C, the “Max. Exotherm” value came to 197 °C and the “Nature of Product” value was “Resin”. Besides, in test [2], the “Initiation Temp.” value was determined as 25 °C and the “Nature of Product” value is recorded as “Foam”.
On to `CCN(CC)CCN(C)c1nc(N(C)CCO)nc(N(C)CCN(CC)CC)n1` [Example VI, 2,4-bis(N-methyl-2-diethylaminoethylamino)-6-(N-methyl-2-hydroxyethylamino)-s-triazine], for which, in test [1] (catalyst 1.0 part), the “Initiation Temperature” value is 94 °C, the “Max. Exotherm” value was 140 °C and the “Nature of Product” value is “Resin”. In test [2], the “Initiation Temp.” value worked out at 25 °C, the “Maximum Exotherm” value stood at 177 °C and the “Nature of Product” value is listed as “Foam”.
